Where two headings read alike, the source gives them in different places.
What was measured:
[1] = system: C. albicans cells; assay: Candida albicans spot plating after Piroctone Olamine and 409 nm light (Table 4); assay type: cell-based; parameters: key to spot plated growth (score): +: a continuous fungal lawn; +/−: a lawn with breaks allowing the agar to show; −: 0 to 5 colonies
Description: Potentiation of Piroctone Olamine by light exposure is also observed in Candida albicans. […] Cells are then diluted as indicated in the left column, and spot plated. Resulting growth is then scored, as explained above.

[2] = system: S. cerevisiae BY4741; conditions: for 17 h growth: YNB Ethanol
Description: Cells are grown in the medium of choice, generally one requiring respiration. In the case of Malassezia furfur that medium is modified Dixon medium (mDixon) (per one liter: 36 g malt extract (Difco 0186-17), 20 g ox bile (provided by American Laboratories, Inc., of Omaha, Nebraska, as Lot No. 03130792), 10 ml Tween 40 (Aldrich 27435-6), 6 g peptone (Difco 0118-17), 2 ml oleic acid (Baker 2114-01), and 2 ml glycerol (Sigma G-7893)). [Candida and YPG, Saccharomyces and YNB (without amino acids) to which we added 40 μg/ml each of uracil, histidine, and methionine plus 130 μg/ml leucine and 2% ethanol and 0.1% yeast extract.] Conventional medium may also be used for other microbials. Starting cultures are prepared by diluting a fresh overnight culture that is out of log phase 1:100 and incubating with shaking at 31° C. in a 250 mL shake flask (Corning, 431144) with 20 mL medium shaking at 200-250 rpm for about 3 hours to ensure the cells had returned to growth phase. At this time, the test agent is added to the flasks to afford the final concentration for testing. The cells are cultured for 1 hour with the test agent. At this time, the cells typically have an OD at 600 nm in the range of 0.25 to 0.8. Generally, we isolate 2.5 OD*mLs of cells calculated as desired OD*mLs divided by the OD600 of the cells. These media samples are centrifuged (Beckman Coulter Allegra™ 6KR centrifuge) 10 minutes at RT at 3200 rpm to pellet the cells. The supernatant is poured off and the tubes are set upside down on a folded paper towel to drain off the remains of media. Two and one half milliliters of PBS (Gibco, pH 7.4, without magnesium chloride or calcium chloride, 14190-144) is added and the cells resuspended. One mL of cells is transferred to each of two 12-well plates (Falcon, polystyrene, 353043). One plate is stored in the dark and the other is exposed to the light with the plate cover on the plate. […] When the light exposure is completed, the samples are mixed by slowly vortexing or pipetting and 0.65 mL of each sample is transferred to 13 mL of medium for overnight growth at 31° C. with shaking. The following morning, typically 18 hours later, the ODs at 600 nm are determined. Successful materials are those that show at least a 50% reduction in growth after light exposure relative to a dark sample.
S. cerevisiae is exposed to light from LED flashlights of the indicated wavelength as well as a painter's light/worklight, commonly found at a hardware store, which provides a broad spectrum of wavelengths of light. Yeast has been pretreated as indicated, prior to light exposure.

Cc1cc(CC(C)CC(C)(C)C)n(O)c(=O)c1.NCCO (stereo not drawn) [Piroctone Olamine, 1-Hydroxy-4-methyl-6-(2,4,4-trimethylpentyl)-2-pyridone monoethanolamine salt]
spot plated growth (score) ([1]; 6 ppm, dilution 1:2, 15 minute 409 nm light): +
spot plated growth (score) ([1]; 6 ppm, dilution 1:2, Dark): +
spot plated growth (score) ([1]; 6 ppm, dilution 1:20, 15 minute 409 nm light): +
spot plated growth (score) ([1]; 6 ppm, dilution 1:20, Dark): +
spot plated growth (score) ([1]; 6 ppm, dilution 1:200, 15 minute 409 nm light): +/−
spot plated growth (score) ([1]; 6 ppm, dilution 1:200, Dark): +/−
spot plated growth (score) ([1]; 6 ppm, dilution 1:2000, 15 minute 409 nm light): +/−
spot plated growth (score) ([1]; 6 ppm, dilution 1:2000, Dark): +/−
growth with the addition of light ([1]; 12 and 24 ppm dose, 409 nm light 15 min): complete inhibition of growth
spot plated growth (score) ([1]; 12 ppm, dilution 1:2, 15 minute 409 nm light): +
spot plated growth (score) ([1]; 12 ppm, dilution 1:2, Dark): +
spot plated growth (score) ([1]; 12 ppm, dilution 1:20, 15 minute 409 nm light): +/−
spot plated growth (score) ([1]; 12 ppm, dilution 1:20, Dark): +
spot plated growth (score) ([1]; 12 ppm, dilution 1:200, 15 minute 409 nm light): +/−
spot plated growth (score) ([1]; 12 ppm, dilution 1:200, Dark): +/−
spot plated growth (score) ([1]; 12 ppm, dilution 1:2000, 15 minute 409 nm light): − (0 to 5 colonies)
spot plated growth (score) ([1]; 12 ppm, dilution 1:2000, Dark): +/−
spot plated growth (score) ([1]; 24 ppm, dilution 1:2, 15 minute 409 nm light): +
spot plated growth (score) ([1]; 24 ppm, dilution 1:2, Dark): +
spot plated growth (score) ([1]; 24 ppm, dilution 1:20, 15 minute 409 nm light): +/−
spot plated growth (score) ([1]; 24 ppm, dilution 1:20, Dark): +
spot plated growth (score) ([1]; 24 ppm, dilution 1:200, 15 minute 409 nm light): +/−
spot plated growth (score) ([1]; 24 ppm, dilution 1:200, Dark): +/−
spot plated growth (score) ([1]; 24 ppm, dilution 1:2000, 15 minute 409 nm light): − (0 to 5 colonies)
spot plated growth (score) ([1]; 24 ppm, dilution 1:2000, Dark): +/−

[O-]n1ccccc1=S.[O-]n1ccccc1=S.[Zn+2] [ZPT, zinc salt of 1-hydroxy-2-pyridinethione]
17 h growth ([2]; 0.8 ppm, 395 nm light): 0.7205
17 h growth ([2]; 0.8 ppm, 520 nm light): 1.418
17 h growth ([2]; 0.8 ppm, 580 nm light): 1.332
17 h growth ([2]; 0.8 ppm, Broad Spectrum light): 0.525
17 h growth ([2]; 0.8 ppm, Dark): 1.5185
17 h growth ([2]; 1.6 ppm, 395 nm light): 0.3435
17 h growth ([2]; 1.6 ppm, 520 nm light): 1.3615
17 h growth ([2]; 1.6 ppm, 580 nm light): 0.9245
17 h growth ([2]; 1.6 ppm, Broad Spectrum light): 0.303
17 h growth ([2]; 1.6 ppm, Dark): 1.525
sensitivity of treated yeast to light ([2]; ZPT-treated, LED flashlights 395, 520, 580 nm): sensitive to a 395 nm flashlight, but not two other wavelengths of light

Reference: patent US11771765B2, “Light augmented treatment method” (The Procter & Gamble Company, priority 2019, dated 2023)
